From article PMC9405123, “Design, Synthesis and Mechanistic Studies of Novel Isatin-Pyrazole Hydrazone Conjugates as Selective and Potent Bacterial MetAP Inhibitors” (Antibiotics, 2022)
≈ marks a conversion by molar mass, not a printed value.

Legend:
Cytotoxicity assay (MTT) = format: cell-based; conditions: human, HEK293 cells, read-out: viable HEK293 cells
Procedure: PS9 was tested for cytotoxicity against human embryonic kidney (HEK293) cells using a colorimetric MTT assay. HEK293 cells were grown at 37 °C in a humidified environment of 5% CO2 in DMEM media enriched with 10% FBS and 1% penicillin, streptomycin solution. HEK293 cells (1 × 10^4) were seeded in triplicate and incubated overnight in a CO2 incubator. After the treatment (5–200 μM) with PS9, the cells were kept for 48 h at 37 °C. Freshly prepared 5 mg/mL MTT was supplied to the samples and kept on incubation at 37 °C for 4–5 h. DMSO was added to solubilize the formazan crystals. A microplate reader (Bio-Rad, Hercules, CA, USA) was used for taking absorbance at 570 nm and all the experiments were done in triplicate.

HK1 = assay: MIC on environmental MDR isolate (microdilution)
LG20 = assay: MIC on environmental MDR isolate (microdilution)
E. coli [1] = assay: Time-kill curve assay; format: cell-based, Escherichia coli
Procedure: A time–kill curve study was performed against bacterial strains (E. coli, E. faecalis, K. pneumonia and P. aeruginosa) to determine whether compound PS9 is bactericidal or bacteriostatic. MIC, 2MIC and 4MIC concentrations were employed for the time–kill assay as explained by Ali et al.. Untreated bacterial cells were used as a control. 100 µL aliquot was taken from each flask at regular intervals. An aliquot was further diluted in phosphate buffer saline solution and from each concentration 50 µL aliquot was inoculated on a nutrient agar plate and spread. Colonies were counted after the incubation of the plate at 37 °C. For each strain, the average (mean) colony count data (log10 CFU/mL) was plotted against time.

S. aureus [2] = assay: Minimum inhibitory concentration (broth dilution); format: cell-based; conditions: Staphylococcus aureus, alone
E. faecalis [3] = assay: Minimum bactericidal concentration; format: cell-based, Enterococcus faecalis
K. pneumoniae = assay: Combination study with AMP or CIP
E. coli [4] = assay: Growth inhibition screening (broth dilution); format: cell-based, Escherichia coli
In short: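 Standard NCCLS broth dilution in nutrient broth, with compounds dissolved in DMSO and tested at a final 250 µg/mL per well. About 2.5 × 10^5 cells/mL were inoculated and incubated overnight at 37 °C. Growth was read as culture turbidity at 590 nm.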

LG1 = assay: MBC on environmental MDR isolate
G. mellonella larvae = assay: In vivo toxicological assessment, larval survival; set-up: species or system Galleria mellonella; conditions: 100, 250, 500, 750 and 1000 μg/mL; up to 5 days
Procedure: The objective of this experiment was to assess the in vivo toxicity of PS9 using larvae of G. mellonella. […] The results obtained using Galleria larvae show a strong correlation to those generated using mammals and larvae have the advantage of producing results within 48 h, being inexpensive to purchase and house, and being free from the legal and ethical restrictions that affect mammalian testing. Larvae can also be used to assess toxicity and there is a strong correlation between the toxicity of compounds in larvae and mammals.
PS9 stock solutions were prepared in DMSO (≤10%) and deionized water and maintained at room temperature.
The greater wax G. mellonella sixth instar larvae were purchased from Live foods Direct Ltd. Sheffield, UK, and kept in the dark at 15 °C to suspend pupation. Healthy larvae with no appearance of melanization and weighing 150–250 mg were selected and stored in sterile nine cm Petri dishes containing wood shavings.

B. subtilis = assay: Combination study with AMP or CIP
E. faecalis [5] = assay: Minimum inhibitory concentration (broth dilution); format: cell-based; conditions: Enterococcus faecalis, alone
HK32 = assay: MIC on environmental MDR isolate (microdilution); conditions: Enterobacter cloacae
HK91 [6] = assay: MBC on environmental MDR isolate; conditions: Ralstonia
LG51 = assay: MIC on environmental MDR isolate (microdilution); conditions: Escherichia coli
JST61 = assay: MIC on environmental MDR isolate (microdilution); conditions: Pantoea agglomerans
P. aeruginosa = assay: Minimum bactericidal concentration; format: cell-based, Pseudomonas aeruginosa; conditions: Pseudomonas aeruginosa
HK43 = assay: MIC on environmental MDR isolate (microdilution); conditions: Exiguobacterium mexicanum
HK91 [7] = assay: MIC on environmental MDR isolate (microdilution); conditions: Ralstonia
S. aureus [8] = assay: Minimum bactericidal concentration; format: cell-based, Staphylococcus aureus
P. aeruginosa PAO1 = assay: In vivo antibacterial efficacy in infected larvae; conditions: P. aeruginosa infected larvae (1.5 × 10^9 CFU/mL); PS9 1000 μg/mL; 48 and 72 h
HK41 = assay: MIC on environmental MDR isolate (microdilution); conditions: Enterobacter cloacae
SH34 = assay: MIC on environmental MDR isolate (microdilution); conditions: Serratia marcescens

O=C1Nc2ccc(F)cc2/C1=N\NC(=O)c1cc(-c2cccc(Br)c2)n[nH]1 [PS9, (E)-3-(3-Bromophenyl)-N′-(5-Fluoro-2-Oxoindolin-3-Ylidene)-1H-Pyrazole-5-Carbohydrazide] showed a viability at 48 h, 100 µg/mL (Cytotoxicity assay (MTT); 100 µg/mL) greater than 90%, a viability at 48 h (Cytotoxicity assay (MTT); up to 200 µg/mL) greater than 75% and an MIC (HK1) of 16 µg/mL (≈ 37.4 µM). For the same compound, the “MIC lower than standard antibiotic AMP” value (HK1; isolate HK1) was 16 times, the “MIC lower than third-generation drug CTX” value (HK1; isolate HK1) was 8 times and the MIC (LG20; Enterobacter, isolate LG20 Enterobacter sp.) was less than 1 µg/mL. The “MIC lower than AMP and CTX” value (LG20; isolate LG20) was 32 times, the “killing (log10 CFU/mL with time)” value (E. coli [1]; 4MIC, after 16 h) was “significant eradication” and the “killing (log10 CFU/mL with time)” value (E. coli [1]; MIC, till 16 h) was “no 100% eradication”. The MIC (S. aureus [2]) was 32 µg/mL (≈ 74.7 µM), the “MBC/MIC Ratio (R*)” value (E. faecalis [3]) was 4 and the MBC (E. faecalis [3]; Enterococcus faecalis) was 32 µg/mL (≈ 74.7 µM). The “MIC in Combination” value (K. pneumoniae; combination PS9 + AMP) was 2 µg/mL, the “MIC in Combination” value (K. pneumoniae; combination PS9 + CIP) was 4 µg/mL and the FICI (K. pneumoniae; combination with AMP) was 0.50. The FICI (K. pneumoniae; combination with CIP) was 0.50, the inhibition at 250 µg/mL (E. coli [4]; Escherichia coli) was no less than 94% and the “% Growth Inhibition at 250 µg/mL” value (E. coli [4]; listed as C00009) was 100%. The MBC (LG1) was 128 µg/mL (≈ 299 µM), the larval survival (G. mellonella larvae) was 100% and the “MIC in Combination” value (B. subtilis; combination PS9 + AMP) was 4 µg/mL. The “MIC in Combination” value (B. subtilis; combination PS9 + CIP) was 8 µg/mL, the FICI (B. subtilis; combination with AMP) was 0.62 and the “Mode of Interaction” value (B. subtilis; combination with AMP) was “Indifferent (in between 0.5 and 4)”. For the same compound, the FICI (B. subtilis; combination with CIP) was 4.25, the MIC (E. faecalis [5]) was 8 µg/mL (≈ 18.7 µM) and the MIC (HK32) was 64 µg/mL (≈ 149 µM). It also gave an MBC (HK91 [6]) of 16 µg/mL (≈ 37.4 µM), an MIC (LG51) of 1000 µg/mL (≈ 2340 µM) and an MIC (JST61) of 1000 µg/mL (≈ 2340 µM). The MBC (P. aeruginosa) was 16 µg/mL (≈ 37.4 µM), the MIC (HK43) was 16 µg/mL (≈ 37.4 µM) and the MIC (HK91 [7]) was 2 µg/mL (≈ 4.67 µM). The “MBC/MIC Ratio (R*)” value (S. aureus [8]) was 8, the MBC (S. aureus [8]; Staphylococcus aureus) was 256 µg/mL (≈ 598 µM) and the “effect on death of infected larvae” value (P. aeruginosa PAO1) was “small protective effect”. For the same compound, the MIC (HK41) was 32 µg/mL (≈ 74.7 µM) and the MIC (SH34) was greater than 1020 µg/mL.
